From the NIST ThermoML archive (doi:10.1021/acs.jced.9b00442)

Details: 100 kPa, Liquid; for electrical conductivity: Frequency=0.0006 MHz, Alternating current cell with electrodes; for viscosity: Concentric cylinders viscometry; for mass density: Vibrating tube method

CC[N+](CCO)(CCO)CCO.O=S(=O)([N-]S(=O)(=O)C(F)(F)F)C(F)(F)F
Details | electrical conductivity [S/m] | mass density [kg/m3] | viscosity [mPa·s]
283.15 K | 0.007 | – | –
288.15 K | 0.011 | 1538.5 | 2041.7
289.15 K | – | 1537.6 | –
290.15 K | – | 1536.7 | –
291.15 K | – | 1535.9 | –
292.15 K | – | 1535 | –
293.15 K | 0.018 | 1534.1 | 1275.4
294.15 K | – | 1533.2 | –
295.15 K | – | 1532.4 | –
296.15 K | – | 1531.5 | –
297.15 K | – | 1530.6 | –
298.15 K | 0.026 | 1529.7 | 840.6
299.16 K | – | 1528.9 | –
300.16 K | – | 1528 | –
301.15 K | – | 1527.1 | –
302.15 K | – | 1526.2 | –
303.15 K | 0.037 | 1525.4 | 569.4
304.15 K | – | 1524.5 | –
305.15 K | – | 1523.6 | –
306.15 K | – | 1522.7 | –
307.15 K | – | 1521.9 | –
308.15 K | 0.052 | 1521 | 397.8
309.15 K | – | 1520.1 | –
310.15 K | – | 1519.2 | –
311.15 K | – | 1518.4 | –
312.15 K | – | 1517.5 | –
313.15 K | 0.07 | 1516.6 | 280.3
314.15 K | – | 1515.7 | –
315.15 K | – | 1514.9 | –
316.15 K | – | 1514 | –
317.15 K | – | 1513.1 | –
318.15 K | 0.092 | 1512.2 | 210.5
319.15 K | – | 1511.3 | –
320.15 K | – | 1510.5 | –
321.15 K | – | 1509.6 | –
322.15 K | – | 1508.7 | –
323.15 K | 0.118 | 1507.8 | 158.6
324.15 K | – | 1507 | –
325.15 K | – | 1506.1 | –
326.15 K | – | 1505.2 | –
327.15 K | – | 1504.4 | –
328.15 K | – | 1503.5 | 122
329.15 K | – | 1502.6 | –
330.15 K | – | 1501.8 | –
331.15 K | – | 1500.9 | –
332.15 K | – | 1500 | –
333.15 K | – | 1499.2 | 94.7
334.15 K | – | 1498.3 | –
335.16 K | – | 1497.4 | –
336.15 K | – | 1496.6 | –
337.15 K | – | 1495.7 | –
338.15 K | – | 1494.9 | 76.1
339.15 K | – | 1494 | –
340.15 K | – | 1493.2 | –
341.15 K | – | 1492.3 | –
342.15 K | – | 1491.4 | –
343.15 K | – | 1490.6 | 61.6
344.15 K | – | 1489.7 | –
345.15 K | – | 1488.9 | –
346.15 K | – | 1488 | –
347.15 K | – | 1487.2 | –
348.15 K | – | 1486.3 | 50.6
349.15 K | – | 1485.5 | –
350.15 K | – | 1484.6 | –
351.15 K | – | 1483.8 | –
352.15 K | – | 1483 | –
353.15 K | – | 1482.1 | 41.9
354.15 K | – | 1481.3 | –
355.15 K | – | 1480.4 | –
356.15 K | – | 1479.6 | –
357.15 K | – | 1478.7 | –
358.15 K | – | 1477.9 | 35.3
359.15 K | – | 1477.1 | –
360.15 K | – | 1476.2 | –
361.15 K | – | 1475.4 | –
362.16 K | – | 1474.6 | –
363.15 K | – | 1473.7 | 30
